# In patent publication US11377442B2, “Small molecule agonists and antagonists of NR2F6 activity” (ZANDER THERAPEUTICS, INC., priority 2016, dated 2022):
# Like-named read-outs stand apart in the source and are kept apart here.
# Legend:
# Type in all cases: cell-based
# NR2F6 = biological target: T1, NR2F6 (Homo sapiens, UniProt P10588); experiment: NR2F6 agonist screening, Firefly signal cmpd/DMSO
# T1 construct: expressed in transfected cells; also transient transfection
# T1 sequence (P10588 1-404): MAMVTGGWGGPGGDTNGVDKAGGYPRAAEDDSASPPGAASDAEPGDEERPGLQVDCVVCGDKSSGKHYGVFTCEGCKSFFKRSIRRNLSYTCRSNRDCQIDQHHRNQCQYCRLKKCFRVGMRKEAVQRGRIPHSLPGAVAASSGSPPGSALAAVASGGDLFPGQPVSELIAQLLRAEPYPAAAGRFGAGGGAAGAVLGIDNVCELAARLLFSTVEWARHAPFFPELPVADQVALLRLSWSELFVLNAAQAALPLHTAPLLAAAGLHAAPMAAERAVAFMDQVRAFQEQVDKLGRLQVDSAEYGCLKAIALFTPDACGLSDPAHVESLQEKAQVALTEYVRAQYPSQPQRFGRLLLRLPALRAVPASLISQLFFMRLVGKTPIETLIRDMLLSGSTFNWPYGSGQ
# Renilla_ERa = experiment: Renilla signal in ERα counterscreen (Renilla_ERa); conditions: read-out: Renilla ERalpha transient, cmpd/DMSO (mean)
# Renilla = Renilla signal in NR2F6 agonist screening, cmpd/DMSO; conditions: Renilla, read-out: Renilla F4, cmpd/DMSO (mean)
# ERα [1] = biological target: T2, ERα (Homo sapiens, UniProt P03372); experiment: Counterscreening, Firefly signal with ERα transient transfection (Firefly_ERa)
# T2 construct: expressed in transfected cells
# T2 sequence (P03372 1-595): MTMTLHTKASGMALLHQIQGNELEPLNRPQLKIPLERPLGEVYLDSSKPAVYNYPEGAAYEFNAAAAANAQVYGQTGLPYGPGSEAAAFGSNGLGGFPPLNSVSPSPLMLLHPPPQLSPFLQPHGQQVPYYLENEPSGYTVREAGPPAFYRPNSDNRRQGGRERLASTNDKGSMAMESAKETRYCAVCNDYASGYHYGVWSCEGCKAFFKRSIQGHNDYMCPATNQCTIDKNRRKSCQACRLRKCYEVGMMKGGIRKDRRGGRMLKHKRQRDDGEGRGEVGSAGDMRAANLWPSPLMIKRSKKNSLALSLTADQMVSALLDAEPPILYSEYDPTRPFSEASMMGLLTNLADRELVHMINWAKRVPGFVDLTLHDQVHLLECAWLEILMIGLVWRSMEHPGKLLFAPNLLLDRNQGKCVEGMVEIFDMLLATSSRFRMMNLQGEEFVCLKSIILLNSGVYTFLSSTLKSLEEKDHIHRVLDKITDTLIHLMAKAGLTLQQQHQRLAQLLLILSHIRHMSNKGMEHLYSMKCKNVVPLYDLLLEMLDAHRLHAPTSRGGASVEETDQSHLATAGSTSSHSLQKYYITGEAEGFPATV
# ERα [2] = biological target: T2, ERα; experiment: as above; conditions: 10 uM
# Method: The methodology for screening candidate compounds as NR2F6 agonists was as follows: For primary screening, hit criteria was ACT %>DMSO control+5*SD (DSO control) at 10 μM, or any compound with S/B>2. For rescreening, hit criteria was ACT %>DMSO control+3*SD (DSO control) in each replicate at 10 μM. For counterscreening, hit criteria was mean ACT<DMSO control+3*SD (DMSO control) with ERα transient transfection in duplicate at 10 μM.
Compound,"Firefly F4, cmpd/DMSO (mean) (NR2F6; 2 uM, clone F4)","Firefly F4, cmpd/DMSO (mean) (NR2F6; 10 uM, clone F4)","Firefly F4, cmpd/DMSO (mean) (NR2F6; 40 uM, clone F4)","Firefly ERalpha transient, cmpd/DMSO (mean) (ERα [1]; 2 uM)","Firefly ERalpha transient, cmpd/DMSO (mean) (ERα [1]; 40 uM)","Firefly ERalpha transient, cmpd/DMSO (mean) (ERα [2])","Firefly F4, cmpd/DMSO (mean) (NR2F6; Table 15, 2 uM)","Firefly F4, cmpd/DMSO (mean) (NR2F6; Table 15, 10 uM)","Firefly F4, cmpd/DMSO (mean) (NR2F6; Table 15, 40 uM)","Firefly ERalpha transient, cmpd/DMSO (mean) (ERα [1]; Table 15, 2 uM)","Firefly ERalpha transient, cmpd/DMSO (mean) (ERα [1]; Table 15, 40 uM)","Firefly ERalpha transient, cmpd/DMSO (mean) (ERα [2]; Table 15)",fold induction at 2 µM (Renilla_ERa),fold induction at 10 µM (Renilla_ERa),fold induction at 40 µM (Renilla_ERa),fold induction at 2 µM (Renilla; clone F4),fold induction at 10 µM (Renilla; clone F4),fold induction at 40 µM (Renilla; clone F4),other results
CCOC(=O)c1cnc2c(C)cc(C)cc2c1N1CCC(C)CC1 [Compound Z76],,,,,,,0.8,1.8,0.8,1.3,0.7,1.9,,,,,,,fold induction at 2 µM (Renilla_ERa; Table 15): 1.1; fold induction at 10 µM (Renilla_ERa; Table 15): 0.8; fold induction at 40 µM (Renilla_ERa; Table 15): 0.4; fold induction at 2 µM (Renilla; Table 15): 1; fold induction at 10 µM (Renilla; Table 15): 0.8; fold induction at 40 µM (Renilla; Table 15): 0.5
CCOC(=O)c1cnc2c(C)cc(C)cc2c1NCCCN1CCCCC1 [Compound Z8],,,,,,,2.6,4.0,0.7,2.2,0.4,2.4,,,,,,,fold induction at 2 µM (Renilla_ERa; Table 15): 1.4; fold induction at 10 µM (Renilla_ERa; Table 15): 1.4
CCOC(=O)c1cnc2c(C)cc(C)cc2c1NCCCN1CCCCC1 [Compound Z9],,,,,,,2.5,6.7,1.2,2.2,0.5,2.7,,,,,,,

# Further lines, with some results ahead:
"Firefly F4, cmpd/DMSO (mean) (NR2F6; 2 uM, clone F4)","Firefly F4, cmpd/DMSO (mean) (NR2F6; 10 uM, clone F4)","Firefly F4, cmpd/DMSO (mean) (NR2F6; 40 uM, clone F4)","Firefly ERalpha transient, cmpd/DMSO (mean) (ERα [1]; 2 uM)","Firefly ERalpha transient, cmpd/DMSO (mean) (ERα [1]; 40 uM)","Firefly ERalpha transient, cmpd/DMSO (mean) (ERα [2])","Firefly F4, cmpd/DMSO (mean) (NR2F6; Table 15, 2 uM)","Firefly F4, cmpd/DMSO (mean) (NR2F6; Table 15, 10 uM)","Firefly F4, cmpd/DMSO (mean) (NR2F6; Table 15, 40 uM)","Firefly ERalpha transient, cmpd/DMSO (mean) (ERα [1]; Table 15, 2 uM)","Firefly ERalpha transient, cmpd/DMSO (mean) (ERα [1]; Table 15, 40 uM)","Firefly ERalpha transient, cmpd/DMSO (mean) (ERα [2]; Table 15)",Compound,fold induction at 2 µM (Renilla_ERa),fold induction at 10 µM (Renilla_ERa),fold induction at 40 µM (Renilla_ERa),fold induction at 2 µM (Renilla; clone F4),fold induction at 10 µM (Renilla; clone F4),fold induction at 40 µM (Renilla; clone F4),other results
1.8,0.9,1.5,1.8,1.5,0.8,,,,,,,Cc1cc(C)c2ncc(C(=O)N3CCCC3)c(NCCCN(C)C)c2c1 [Compound Z32],1,1.1,0.8,1,1,1.3,
0.8,0.9,1.1,0.9,1.3,1.6,,,,,,,Cc1cc(C)c2ncc(C(=O)N(C)C)c(NCCCN(C)C)c2c1 [Compound Z31],1,1,1,1.1,1,1,
0.7,1.8,0.7,1.2,5.8,1.6,,,,,,,CCOC(=O)c1cnc2c(Cl)cc(Cl)cc2c1NCCCN1CCCC1 [Compound Z36],1.2,1.6,0.8,1,1.8,0.6,
1.0,0.9,0.8,1.4,1.2,1.4,,,,,,,CC1CCN(c2nc(NCCN3CCOCC3)nc(N3CC4CC(C3)c3cccc(=O)n3C4)n2)CC1 (centres unmarked) [Compound 43],1.1,1,1,1,1.1,1.1,
